Data as given in US6254883A, “Composition for transdermal delivery of drugs” (Novagent Oy, priority 1996, dated 2001).
Entries after “also recorded” stand apart in the source; their conditions may differ.

What was measured:
[1] = Delivery of tacrine from acidic fiber ion exchanger to blood through skin, Franz diffusion cell (Example 2); type: in vitro ADME; settings: 30 mg tacrine per gram of fiber
[2] = phosphate buffer 6 mM, pH 7,4
Experimental: The cationic fiber discs were washed in 5% HCl solution in a dropfunnel until all sodium was exchanged.
Drug release from the fiber discs was tested in vitro in Franz diffusion cells (Crown Glass Co., Somerville, N.J.) at 37 C. The fiber discs were placed in the diffusion cells so that one side of the cationic ion-exchange fiber was exposed to the dissolution medium (phosphate-buffer6 mM, pH 7,4). Surface area of the fiber discs exposed to the buffer was 0,64 cm^2. […] The column used was Supelcosil LC-18-DB (5 m, 150 mm×4,6 mm), and the mobile phase included 22% of acetonitrile, 1% of triethylamine, and 77% of phosphate buffer at pH 6,5. Detection wavelength was 240 nm and flow rate was 1,0 ml per min.

[3] = Tacrine permeation across human skin in vitro, Side-by-Side diffusion chambers (Example 3); type: in vitro ADME
[4] = buffered solution pH=7; 30 mg tacrine per gram of fiber
Experimental: An acidic fiber ion exchanger was treated with this solution, wherein the following reaction occurred:
wherein R is the back bone of the fiber ion exchanger (polypropylene).
The ion exchange performance of this fiber ion-exchanger was tested in a Franz diffusion cell (see FIG. 1) to
a buffered solution (pH=7), and t

[5] = cited from earlier work
[6] = Tacrine (-HCl), cited from earlier work
[7] = In vitro release of salicylate from anionic ion-exchange fiber through skin (epidermis) in Franz diffusion cells (experiment 3); type: in vitro ADME
From the text: (§1) In the experiments below a woven cloth was used comprising a cotton textile fiber (RAIEX AK II) in which […] amine groups (-N^+ (CH3)3) had been grafted to the polysaccaride molecules. The surface weight of the cloth was 200 g/m^2. The thickness of the fiber was 30-40 μm, strength 10-20 kg s/mm^2, break stretch 15-40% and the ion exchanger capacity 3.3 mekv/g.
(§2) For release studies circular discs (diameter 25 mm) were cut from the above mentioned anionic ion-exchange fiber cloth. The fiber discs were washed by 5% NaHCO3 solution in a dropfunnel until all chloride was exchanged (tested by silver nitrate in HNO3 solution). […] The discs containing salicylate were dried in 37° C.
(§3) Drug release in vitro from the fiber discs at 37° C. was tested in Franz diffusion cells (Crown Glass Co. Inc., Somerville, N.J.) (FIG. 1). In the figure reference number 11 denotes the donor compartment, 14 receiver compartment, 15 thermostat, 16 stirring rod and 12 sample tube. […] The dissolution medium was pH 7.4 phosphate buffer saline (PBS, 143 mM, μ=0.15 (μ=ionic strength)) in experiment 1 and pH 7.4 phosphate buffer (6 mM, […]) in experiments 2 and 3. To assess the effect of the skin on drug release (experiment 3), a piece of epidermis 13 was placed between the fiber disc and buffer solution. At fixed times, samples of 250 μl were withdrawn and the drug concentration in the samples were determined by using HPLC (Beckman System Gold, Beckman Instrument, San Ramon, Calif.) with a Supelcosil LC-18-DB column (5 μm, 150×4.6 mm) (Supelco Inc., Rohm and Haab Co., Bellefonte, Pa.). The mobile phase was a binary mixture of methanol (40% v/v) and pH 7.0 phosphate buffer (60%). The detection wavelenght was 298 nm, and the flow rate of 1.0 ml/min, the retention time was 2.6 min.

[8] = In vitro release of salicylate from anionic ion-exchange fiber discs in Franz diffusion cells, 37° C. (experiments 1 and 2)
From the text: as §1, §2, §3

[9] = pH 7.0 phosphate buffer (200 mM) containing 6.27 g/l NaCl; donor 50 μg/ml; cited from earlier work

Question: Which “amount of tacrine delivered to blood through skin (in words)” value [1] does the source give for `Nc1c2c(nc3ccccc13)CCCC2` [tacrine, 9-amino-1,2,3,4-tetrahydroacridine] here?
Answer: Its value is “pharmacologically significant amounts”.

Question: What about the “tacrine release rate from the cationic ion-exchange fiber” value ([2]; during the first 10 hours) of the same compound?
Answer: Its value is “about 375 g/h per cm^2”.

Question: And the “duration of initial burst of tacrine release” value ([2]; 37 C.)?
Answer: Its value is 6 to 12 h.

Question: What about the “tacrine released from the fiber after initial burst” value ([2]; after initial burst of about 6-12 h) of the same compound?
Answer: Its value is 50%.

Question: And the “steady-state flux of tacrine across human skin” value ([3]; 5% solution, pH 7,4, in vitro)?
Answer: Its value is 2,95 g/h per cm^2.

Question: What about the “duration of constant drug delivery from the fiber across skin” value ([3]; cationic ion-exchange fiber) of the same compound?
Answer: Its value is 120 h.

Question: And the “delivery of tacrine across the skin from the cationic ion-exchange fiber” value ([3]; cationic ion-exchange fiber with 3,5% tacrine in HEPES-buffer)?
Answer: Its value is “about 0,003 g/h per cm^2”.

Question: What about the lag-time of permeation ([3]; tacrine solution, human skin, pH 7,4) of the same compound?
Answer: Its lag-time of permeation is “ca. 24 h”.

Question: And the “amount of tacrine delivered to buffered solution (in words)” value [4]?
Answer: The value was “pharmacologically significant amounts”.

Question: What about the “side-effects above clinical concentration (in words)” value ([5]; above about 5-30 ng/ml, oral) of the same compound?
Answer: Its value is “unwanted side-effects are more likely to take place”.

Question: What about the “elimination half-life T1/2” value ([5]; human, in vivo) of the same compound?
Answer: Its value is 1,4-3,6 h.

Question: What about the “first-pass metabolism (in words)” value ([5]; in vivo) of the same compound?
Answer: The value was “extensive first-pass metabolism”.

Question: What about the peroral bioavailability ([5]; peroral) of the same compound?
Answer: Its peroral bioavailability is 5-35%.

Question: What about the “solubility in water (in words)” value [6] of the same compound?
Answer: The value was “soluble in water”.

Question: And the “charge at physiological pH (in words)” value ([6]; physiological pH, assumed)?
Answer: The value was “assumed to carry a positive charge”.

Question: Which results are given for `O=C([O-])c1ccccc1O.[Na+]` [Sodium salicylate, sodium salicylate]?
Answer: release kinetics through skin (in words) ([7]; after initial lag time): followed zero-order kinetic after initial lag time; burst effect with skin (in words) ([7]; with skin): the burst effect disappeared; lag time before steady state release ([7]; with skin): about 2 h; duration of nearly constant / controlled release (in words) ([8]; anionic ion-exchange fiber, in vitro): two days; also recorded: several days; duration of initial burst ([8]; experiment 1, PBS 143 mM): < 6 h; release rate after initial burst (nearly constant) ([8]; experiment 1, PBS 143 mM, pH 7.4, after initial burst): 20-30 μg/h/cm^2; release rate in the beginning of the experiment (burst) ([8]; experiment 1, PBS 143 mM, pH 7.4, initial burst): about 350 μg/h/cm^2; duration of constant release phase ([8]; experiment 2, phosphate buffer 6 mM, μ=0.20): about 50 h; rate of salicylate release during the constant release phase ([8]; experiment 2, phosphate buffer 6 mM, μ=0.20, pH 7.4): about 60 μg/h/cm^2; release rate and released amount, phosphate buffer vs PBS (in words) ([8]; phosphate buffer (6 mM, μ=0.20) compared with PBS (143 mM, μ=0.15)): higher in phosphate buffer (6 mM, μ=0.20) than in PBS solution (143 mM, μ=0.15); in vitro permeability through skin [9]: about 0.34 μg/cm^2 /h
